Experimental findings from US20060115571A1, “Functional foods/drinks containing antiallergic component” (priority 2002, published 2006) are described below.

The data set is described as follows: stability during the process of preparing the hard candy. Conditions: powder of an extract of "Benifuki" made into hard candy. Here is the method: Using a powder of an extract of “Benifuki”, a hard candy was prepared. Methylcatechin was contained at 2.7% in the powder of the extract, so one hard candy was designed to contain 3 mg of methylcatechin.

For the compound `O=C1C[C@@H]2OCC=C3CN4CC[C@]56c7ccccc7N1[C@H]5[C@H]2[C@H]3C[C@H]46` [Strychnine, strychnine], the “stability during the process of preparing the hard candy” value is given as “stable”.
